Earlier results as cited in patent US20110081416A1, “ORDERED MESOPOROUS SILICA MATERIAL” (FORMAC Pharmaceuticals N.V., priority 2008, published 2011).

Experiments:
[1] = not given; remark: listed apart in the source
[2] = Table 3, acids with a pKa of less than 2

## NC(=O)N1c2ccccc2C=Cc2ccccc21 [Carbamazepine, 5H-dibenz[b,f]azepine-5-carboxamide]
Alcohol and acetone
  solubility in alcohol and acetone (in words): soluble
other
  solubility in water (in words): practically insoluble

## C#C[C@]1(O)CC[C@H]2[C@@H]3CCC4=Cc5oncc5C[C@]4(C)[C@H]3CC[C@@]21C [Danazol, 17a-Pregna-2,4-dien-20-yno[2,3-d]-isoxazol-17-ol]
[1]; doubling the dose
  increase in plasma concentration on doubling the dose: 30-40%
[1]; in vivo
  half-life: 4 to 5 h
[1]; oral
  time of peak (plasma) concentrations: ≤ 2 h

## CCC(C)n1ncn(-c2ccc(N3CCN(c4ccc(OCC5COC(Cn6cncn6)(c6ccc(Cl)cc6Cl)O5)cc4)CC3)cc2)c1=O (stereo not shown) [Itraconazole]
other
  solubility in water (in words): poorly soluble

## CC(=O)O[C@H]1C(=O)[C@@]2(C)[C@H]([C@H](OC(=O)c3ccccc3)[C@]3(O)C[C@H](OC(=O)[C@H](O)[C@@H](NC(=O)c4ccccc4)c4ccccc4)C(C)=C1C3(C)C)[C@]1(OC(C)=O)CO[C@@H]1C[C@@H]2O [Paclitaxel]
other
  solubility in water (in words): insoluble

## C=CC[C@@H]1/C=C(\C)C[C@H](C)C[C@H](OC)[C@H]2O[C@@](O)(C(=O)C(=O)N3CCCC[C@H]3C(=O)O[C@H](/C(C)=C/[C@@H]3CC[C@@H](O)[C@H](OC)C3)[C@H](C)[C@@H](O)CC1=O)[C@H](C)C[C@@H]2OC [Tacrolimus]
ethanol
  solubility in ethanol (in words): freely soluble
Methanol and chloroform
  solubility in methanol and chloroform (in words): very soluble
other
  solubility in water (in words): practically insoluble
[1]; 5 mg dose taken twice a day
  absolute bioavailability: approximately 17%

## O=S(=O)(O)NC1CCCCC1 [cyclamic acid]
[2]
  pKa: 1.90

## O=S(O)O [sulfurous acid]
[2]
  pKa: 1.81
